From patent publication US6900200B2, “Tricyclic hydroxy carboxamides and derivatives thereof tocolytic oxytocin receptor antagonists” (Wyeth, priority 2001, dated 2005)

Target: T1, human oxytocin receptor (Homo sapiens, UniProt P30559)
T1 construct: host or cells: CHO cells, pcDNA3.1 vector
T1 sequence (P30559 1-389): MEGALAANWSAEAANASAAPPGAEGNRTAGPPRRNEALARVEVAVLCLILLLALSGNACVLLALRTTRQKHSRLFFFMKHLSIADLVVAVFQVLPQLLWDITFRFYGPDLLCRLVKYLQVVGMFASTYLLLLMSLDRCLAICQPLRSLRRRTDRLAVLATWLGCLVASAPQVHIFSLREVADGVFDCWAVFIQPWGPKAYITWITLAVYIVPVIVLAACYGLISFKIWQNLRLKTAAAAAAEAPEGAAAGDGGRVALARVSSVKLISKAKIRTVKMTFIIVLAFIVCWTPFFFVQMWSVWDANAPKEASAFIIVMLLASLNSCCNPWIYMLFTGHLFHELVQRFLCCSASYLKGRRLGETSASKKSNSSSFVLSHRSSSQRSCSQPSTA
Assay: Oxytocin binding in CHO cell membranes expressing human oxytocin receptors ([3H]oxytocin radioligand binding)
Conditions: for IC50: value printed in parentheses, read-out: OT (IC50); for inhibition at 0.1 µM: @ 100 nM, read-out: OT % inhibition @ 100 nM
Description: Oxytocin Binding in Chinese Hamster Ovary Cell Membranes Expressing Human Oxytocin Receptors
Chinese Hamster Ovary (CHO) cells stably transfected with the human oxytocin receptor (cf. Tanizawa et al., U.S. Pat. No. 5,466,584 (1995) to Rohto Pharmaceutical Co. Ltd., Osaka, Japan) were obtained from M. Thibonnier, Case Western Reserve University School of Medicine, Cleveland, Ohio.
A. Passaging and Amplification of Cells
CHO cells transfected with the human oxytocin receptors obtained from M. Thibonnier (pcDNA3.1 vector) are allowed to grow to confluency (approx. >90%) in T-150 flasks under sterile conditions, in a cell culture medium of F-12 Nutrient Mixture (HAM) with L-glutamine (Gibco Cat. #11765-054) containing 15 mM HEPES (Gibco Cat. #15630-080), 1% antibiotic/antimycotic (add 5 mL 100×, Gibco Cat. #15240-062 per 500 mL F-12), 400 μg/mL of Geneticin (add 4 mL of 50 mg/mL per 500 mL F-12) and 10% Fetal Bovine Serum (Qualified, heat inactivated, Gibco Cat. #16140-063). The medium is removed by aspiration and the cells are washed with 10 mL of Hank's Balanced Salt solution (Gibco Cat. #14175-095). The salt solution is removed by aspiration and the cells trypsinized with 5 mL of trypsin-EDTA (0.05% trypsin, 0.53 mM EDTA-4Na, Gibco Cat. #25300-070) for 1 min. The trypsin is removed by aspiration and the cells dislodged by tapping. Cell Culture medium (e.g. 30 mL for 1:30 split) is immediately added and mixed well to inactivate trypsin. 1 mL of detached cells is added to new culture flasks containing fresh Cell Culture medium (e.g. into 25 mL per T-150 flask), and mixed gently. The cells are incubated at 37° C. in 5% CO2. The medium is changed at 3 to 4 days interval (or as appropriate). The cells grow to confluency (approx. >75%-95%) within 7-8 days. All steps are done under sterile conditions.
The cells are washed twice gently with Hank's Balanced Salt solution (e.g., use 10 mL per T-1 50 flask). The excess solution is removed and the cells bathed for 15-30 min. in an enzyme-free Cell Dissociation Buffer (e.g., use 8 mL Hank's Based, Gibco Cat. #13150-016 per T-150 flask) until cells are loosened. The contents are transferred to centrifuge tubes (50 mL size) kept in ice bath. All subsequent steps are done at 4° C. The tubes are centrifuged at 300×g for 15 min (1380 rpm on SORVAL, Model RT6000D, using rotor for 50 mL tubes). The supernatant is discarded and the cells suspended in homogenizing buffer (10 mM Tris-HCl containing 0.25 M sucrose and 1 mM EDTA, pH 7.4) ensuring that the volume of the buffer is about ten times the volume of the cell pellet. The cells are pooled into a centrifuge tube (50 mL) and homogenized with a Polytron at setting 6 for 10 sec. The homogenate is transferred into a Potter-Elvjehm homogenizer and homogenized with 3 strokes. The homogenate is centrifuged at 1500×g for 10 min at 4° C. (3100 rpm using SORVAL, model RT6000D, using rotor for 50 mL tubes). The pellet is discarded. The supernatant is centrifuged at 100,000×g for 60 min. at 4° C. (Beckman L8-80M ultracentrifuge; spin at 37,500 rpm with rotor type 70 Ti for 50 mL tubes; 38,000 rpm with type 80Ti for 15 mL tubes; or 35,800 rpm with rotor type 45Ti). The supernantant is discarded and the pellet suspended in 3 to 4 mL of Tris buffer (50 mM TRIS—HCl, pH 7.4). The protein content is estimated by the Bradford or Lowry method. The volume of the membrane suspension is adjusted with the membrane buffer (50 mM Tris-HCl containing 0.1% BSA and 0.1 mM PMSF) to give 3.0 mg/mL (or as appropriate) of protein. The membranes are aliquoted and stored at −70° C.
C. Radioligand Binding Assay
In wells of a 96-well format microtiter plate, is added 90, 110 or 130 μL (to make up a final volume of 200 μL) of assay buffer containing 50 mM of Tris-HCl (pH 7.4), […], 1 mg % aprotinin, 1 mg % leupeptin, 2 mg % 1,10-phenanthroline, 10 mg % trypsin inhibitor, and 0.1 mM PMSF. […]

Row | IC50 | inhibition at 0.1 µM | SMILES
1 | 9.16 nM | – | CC(=O)OCC(CN(C)C(=O)c1ccc2n1Cc1ccccc1N(C(=O)c1ccc(-c3ccccc3C(F)(F)F)c(C)c1)C2)OC(C)=O (stereo not drawn) [Example 13, 2-(Acetyloxy)-1-({methyl[(10-{[2-methyl-2′-trifluoromethyl-[1,1′-biphenyl]-4-yl]carbonyl}-10,11-dihydro-5H-pyrrolo[2,1-c][1,4]benzodiazepin-3-yl)carbonyl]amino}methyl)ethyl acetate]
2 | 1.9 nM | – | COc1ccccc1-c1ccc(C(=O)N2Cc3ccc(C(=O)N(C)CC(O)CO)n3Cc3ccccc32)cc1C (stereo not drawn) [Example 14, 10-[(2′-Methoxy-2-methyl-[1,1′-biphenyl]-4-yl)carbonyl]-10,11-dihydro-5H-pyrrolo[2,1-c][1,4]benzodiazepine-3-carboxylic acid (2,3-dihydroxy-propyl)-methyl-amide]
3 | 1.03 nM | – | COc1ccccc1-c1ccc(C(=O)N2Cc3ccc(C(=O)N(C)C[C@H](O)[C@@H](O)[C@H](O)[C@H](O)CO)n3Cc3ccccc32)cc1C [Example 17, 10-[(2′-Methoxy-2-methyl-[1,1′-biphenyl]-4-yl)carbonyl]-10,11-dihydro-5H-pyrrolo[2,1-c][1,4]benzodiazepine-3-carboxylic acid methyl-[(2S,3R,4R, 5R)-2,3,4,5,6-pentahydroxy-hexyl)-amide]
4 | – | 36% | COc1cc2c(cc1OC)N(C(=O)c1ccc(-c3ccccc3C(F)(F)F)c(C)c1)Cc1ccc(C(=O)N(C)CC(O)CO)n1C2 (stereo not drawn) [Example 18, N-(2,3-Dihydroxypropyl)-7,8-dimethoxy-N-methyl-10-{[2-methyl-2′-trifluoromethyl-[1,1′-biphenyl]-4-yl]carbonyl}-10,11-dihydro-5H-pyrrolo[2,1-c][1,4]benzodiazepine-3-carboxamide]
5 | – | 27% | COc1cc2c(cc1OC)N(C(=O)c1ccc(-c3ccccc3C(F)(F)F)c(C)c1)Cc1ccc(C(=O)N(CCO)CCO)n1C2 [Example 19, N,N-Bis(2-Hydroxyethyl)-7,8-dimethoxy-10-{[2-methyl-2′-trifluoromethyl-[1,1′-biphenyl]-4-yl]carbonyl}-10,11-dihydro-5H-pyrrolo[2,1-c][1,4]benzodiazepine-3-carboxamide]
6 | 1.09 nM | – | COc1cc(-c2ccccc2C(F)(F)F)c(Cl)cc1C(=O)N1Cc2ccc(C(=O)N(C)C[C@H](O)[C@@H](O)[C@H](O)[C@H](O)CO)n2Cc2ccccc21 [Example 20, 10-{[6-Chloro-3-methoxy-2′-trifluoromethyl-[1,1′-biphenyl]-4-yl]carbonyl}-N-methyl-N-[(2S,3R,4R,5R)-2,3,4,5,6-pentahydroxyhexyl]-10,11-dihydro-5H-pyrrolo[2,1-c][1,4]benzodiazepine-3-carboxamide]
7 | 1.73 nM | – | COc1cc(C(=O)N2Cc3ccc(C(=O)N(C)CC(O)CO)n3Cc3ccccc32)ccc1-c1ccccc1C(F)(F)F (stereo not drawn) [Example 21, N-(2,3-Dihydroxypropyl)-10-{[2-methoxy-2′-trifluoromethyl-[1,1′-biphenyl]-4-yl]carbonyl}-N-methyl-10,11-dihydro-5H-pyrrolo[2,1-c][1,4]benzodiazepine-3-carboxamide]
8 | 1.47 nM | – | COc1cc(C(=O)N2Cc3ccc(C(=O)N(C)CC(O)CN(C)C)n3Cc3ccccc32)ccc1-c1ccccc1C(F)(F)F (stereo not drawn) [Example 22, N-[(3-Dimethylamino)-2-hydroxy-propyl]-10-{[2-methoxy-2′-trifluoromethyl-[1,1′-biphenyl]-4-yl]carbonyl}-N-methyl-10,11-dihydro-5H-pyrrolo[2,1-c][1,4]benzodiazepine-3-carboxamide]
9 | – | 20% | O=C(c1ccc2n1Cc1ccccc1N(C(=O)c1ccc(-c3cccc4ccccc34)cc1Cl)C2)N1CCN(CCO)CC1 [Example 25, 2-{4-[10-{[2-Chloro-4-(naphthalen-1-yl)phenyl]carbonyl}-(10,11-dihydro-5H-pyrrolo[2,1-c][1,4]benzodiazepin-3-yl)carbonyl]piperazine-1-yl}-1-hydroxyethane]
10 | 55.8 nM | – | Cc1ccc(-c2ccc(C(=O)N3Cc4ccc(C(=O)N(C)CC(O)CO)n4Cc4ccccc43)cc2)c2ccccc12 (stereo not drawn) [Example 26, 10-{[4-(4-Methyl-naphthalen-1-yl)phenyl]carbonyl}-10,11-dihydro-5H-pyrrolo[2,1-c][1,4]benzodiazepine-3-carboxylic acid (2,3-dihydroxy-propyl)-N-methylamide]
11 | – | 53% | COc1cc2c(cc1OC)N(C(=O)c1ccc(-c3ccccc3OC)c(C)c1)Cc1ccc(C(=O)N(C)C[C@H](O)[C@@H](O)[C@H](O)[C@H](O)CO)n1C2 [Example 37, 7,8-Dimethoxy-10-[(2′-methoxy-2-methyl-[1,1′-biphenyl]-4-yl)carbonyl]-10,11-dihydro-5H-pyrrolo[2,1-c][1,4]benzodiazepine-3-carboxylic acid methyl-[(2S, 3R, 4R, 5R)-2,3,4,5,6-pentahydroxy-hexyl)-amide]
12 | 3 nM | – | COc1cc(-c2ccccc2C)c(Cl)cc1C(=O)N1Cc2ccc(C(=O)N3CCN(CCO)CC3)n2Cc2ccccc21 [Example 39, {10-[(6-Chloro-3-methoxy-2′-methyl[1,1′-biphenyl]-4-yl)carbonyl]-10,11-dihydro-5H-pyrrolo[2,1-c][1,4]benzodiazepin-3-yl}[4-(2-hydroxyethyl)-1-piperazinyl]methanone]
13 | – | 93% | COc1ccccc1-c1ccc(C(=O)N2Cc3ccc(C(=O)N4CCN(CCO)CC4)n3Cc3ccccc32)cc1C [Example 40, [4-(2-Hydroxyethyl)-1-piperazinyl]{10-[(2′-methoxy-2-methyl[1,1′-biphenyl]-4yl)carbonyl]-10,11-dihydro-5H-pyrrolo[2,1-c][1,4]benzodiazepin-3-yl}methanone]
14 | – | 71% | COc1cc(C(=O)N2Cc3ccc(C(=O)N4CCN(CCO)CC4)n3Cc3ccccc32)ccc1-c1cccc2ccccc12 [Example 41, [4-(2-Hydroxyethyl)-1-piperazinyl]{10-[3-methoxy-4-(1-naphthyl)benzoyl]-10,11-dihydro-5H-pyrrolo[2,1-c][1,4]benzodiazepin-3-yl}methanone]
15 | – | 89% | COc1cc(C(=O)N2Cc3ccc(C(=O)N4CCN(CCO)CC4)n3Cc3ccccc32)ccc1-c1ccccc1C [Example 42, [4-(2-Hydroxyethyl)-1-piperazinyl]{10-[(2-methoxy-2′-methyl[1,1′-biphenyl]-4yl)carbonyl]-10,11-dihydro-5H-pyrrolo[2,1-c][1,4]benzodiazepin-3-yl}methanone]
